The values that follow come from patent US7001905B2, “Substituted diarylamines as MEK inhibitors” (Warner-Lambert Company, priority 2000, dated 2006).

This assay has as its target T1, MEK (Homo sapiens, UniProt Q02750).
T1 construct: no tag is given for the 2D mutant
Kind of assay: in vitro MEK assay. The assay is classed as biochemical. Here is the method: For evaluation of direct MEK activity, 10 μg GST-MEK, is incubated in the presence of absence of test compound with 5 μg of a glutathione S-transferase fusion protein containing p44MAP kinase with a lysine to alanine mutation at position 71 (GST-MAPK-KA). This mutation eliminates kinase activity of MAPK, so only kinase activity attributed to the added MEK remains. Incubations are 15 minutes at 30° C. in a final volume of 50 μL containing 50 mM Tris (pH 7.5), […], 2, μM EGTA, and 10 μM [γ-^32P]ATP. The reaction is stopped by addition of Laemmli SDS sample buffer. Phosphorylated GST-MAPK-KA is resolved by electrophoresis on a 10% polyacrylamide gel. Radioactivity incorporated into GST-MAPK-KA is determined by autoradiography, and subsequent scintillation counting of excised bands.
Alternatively, an artificially activated MEK containing serine to glutamate mutations at positions 218 and 222 (GST-MEK-2E) is used. When these two sites are phosphorylated, MEK activity is increased. Phosphorylation of these sites can be mimicked by mutation of the serine residues to glutamate. For this assay, 5 μg GST-MEK-2E is incubated with 5 μg GST-MAPK-KA for 15 minutes at 30° C. in the same reaction buffer as described above. Reactions are terminated and analyzed as above.

T1 sequence (Q02750 whole entry S218D/S222D, form open): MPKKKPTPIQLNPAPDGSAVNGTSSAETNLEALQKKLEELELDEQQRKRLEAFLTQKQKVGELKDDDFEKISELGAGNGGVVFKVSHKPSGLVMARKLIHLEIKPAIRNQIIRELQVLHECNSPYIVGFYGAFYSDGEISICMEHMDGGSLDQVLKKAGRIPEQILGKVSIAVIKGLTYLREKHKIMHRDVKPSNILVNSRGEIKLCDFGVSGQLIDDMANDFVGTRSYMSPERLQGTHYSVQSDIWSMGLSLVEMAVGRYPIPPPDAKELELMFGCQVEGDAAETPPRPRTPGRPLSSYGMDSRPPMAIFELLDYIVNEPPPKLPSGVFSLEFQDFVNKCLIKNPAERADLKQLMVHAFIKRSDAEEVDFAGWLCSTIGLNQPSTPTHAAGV

Consider `CCOc1ccc2nc(NC(=O)c3cc4c(c(F)c3F)N(c3ccc(I)cc3C)COC4=O)sc2c1` [Example 28, 7,8-Difluoro-1-(4-iodo-2-methyl-phenyl)-4-oxo-1,4-dihydro-2H-3,1-benzoxazine-6-carboxylic acid (6-ethoxy-benzothiazol-2-yl)-amide], for which the “in vitro MEK assay: % inhibition @ 1 μM” value was determined as 9%.

Consider `Cc1cc(I)ccc1Nc1c(C(=O)O)cc(C(=O)Nc2ccc(S(N)(=O)=O)cc2)c(F)c1F` [Example 96, 4,5-Difluoro-6-(4-iodo-2-methyl-phenylamino)-N-(4-sulfamoyl-phenyl)-isophthalamic acid], for which the “in vitro MEK assay: % inhibition @ 1 μM” value turned out to be 85%.

As to `COCC(C)NC(=O)c1cc2c(c(F)c1F)N(c1ccc(I)cc1C)COC2=O` (stereo not drawn) [Example 22, 7,8-Difluoro-1-(4-iodo-2-methyl-phenyl)-4-oxo-1,4-dihydro-2H-3,1-benzoxazine-6-carboxylic acid (2-methoxy-1-methyl-ethyl)-amide], the “in vitro MEK assay: % inhibition @ 1 μM” value is reported as 46%.

With `Cc1cc(I)ccc1Nc1c(C(=O)O)cc(C(=O)N2CCN(C)CC2)c(F)c1F` [Example 64, 3,4-Difluoro-2-(4-iodo-2-methyl-phenylamino)-5-[1-(4-methyl-piperazin-1-yl)-methanoyl]-benzoic acid], the “in vitro MEK assay: % inhibition @ 1 μM” value is 57%.

Take `Cc1cc(I)ccc1N1COC(=O)c2cc(C(=O)NCCCN3CCCC3=O)c(F)c(F)c21` [Example 12, 7,8-Difluoro-1-(4-iodo-2-methyl-phenyl)-4-oxo-1,4-dihydro-2H-3,1-benzoxazine-6-carboxylic acid [3-(2-oxo-pyrrolidin-1-y)-propyl]-amide]: the “in vitro MEK assay: % inhibition @ 1 μM” value is given as 21%.

For `Cc1cc(I)ccc1N1COC(=O)c2cc(C(=O)N(CCO)CCO)c(F)c(F)c21` [Example 49, 7,8-Difluoro-1-(4-iodo-2-methyl-phenyl)-4-oxo-1,4-dihydro-2H-3,1-benzoxazine-6-carboxylic acid bis-(2-hydroxy-ethyl)-amide], the “in vitro MEK assay: % inhibition @ 1 μM” value stood at 50%.

For the molecule `Cc1csc(NC(=O)c2cc3c(c(F)c2F)N(c2ccc(I)cc2C)COC3=O)n1` [Example 24, ,8-Difluoro-1-(4-iodo-2-methyl-phenyl)-4-oxo-1,4dihydro-2H-3,1-benzoxazine-6-carboxylic acid (4-methyl-thiazol-2-yl)-amide], the “in vitro MEK assay: % inhibition @ 1 μM” value is listed as 20%.

As to `Cc1cc(I)ccc1N1COC(=O)c2cc(C(=O)N(C)C3CCN(C)CC3)c(F)c(F)c21` [Example 16], the “in vitro MEK assay: % inhibition @ 1 μM” value stood at 0%.

On to `CCN1CCN(C(=O)c2cc(C(=O)O)c(Nc3ccc(I)cc3C)c(F)c2F)CC1` [Example 93, 5-[1-(4-Ethyl-piperazin-1-yl)-methanoyl]-3,4-difluoro-2-(4-iodo-2-methyl-phenylamino)-benzoic acid], for which the “in vitro MEK assay: % inhibition @ 1 μM” value is listed as 70%.

As for `Cc1cc(I)ccc1N1COC(=O)c2cc(C(=O)N3CCCC(O)C3)c(F)c(F)c21` (stereo not drawn) [Example 38, 7,8-Difluoro-6-(3-hydroxy-piperidine-1-carbonyl)-1-(4-iodo-2-methyl-phenyl)-1,2-dihydro-3,1-benzoxazin-4-one], the “in vitro MEK assay: % inhibition @ 1 μM” value amounted to 48%.

Turning to `COc1ccc2c(CCNC(=O)c3cc4c(c(F)c3F)N(c3ccc(I)cc3C)COC4=O)c[nH]c2c1` [Example 48, 7,8-Difluoro-1-(4-iodo-2-methyl-phenyl)-4-oxo-1,4-dihydro-2H-3,1-benzoxazine-6-carboxylic acid [2-(6-methoxy-1H-indol-3-yl)-ethyl]-amide], the “in vitro MEK assay: % inhibition @ 1 μM” value is 12%.

Take `Cc1cc(I)ccc1N1COC(=O)c2cc(C(=O)Nc3nccs3)c(F)c(F)c21` [Example 31, 7,8-Difluoro-1-(4-iodo-2-methyl-phenul)-4-oxo-1,4-dihydro-2H-3,1-benzoxazine-6-carboxylic acid thiazol-2-ylamide]: the “in vitro MEK assay: % inhibition @ 1 μM” value is given as 32%.

Turning to `Cc1cc(I)ccc1Nc1c(C(=O)O)cc(C(=O)NCCN2CCOCC2)c(F)c1F` [Example 79, 4,5-Difluoro-6-(4-iodo-2-methyl-phenylamino)-N-(2-morpholin-4-yl-ethyl)-isophthalamic acid], the IC50 – broadly, the concentration needed to halve the response being measured – came out at 1500 nM and the “in vitro MEK assay: % inhibition @ 1 μM” value was 54%.

On to `Cc1cc(I)ccc1N1COC(=O)c2cc(C(=O)NCCN3CCCCC3)c(F)c(F)c21` [Example 10, 7,8-Difluoro-1-(4-iodo-2-methyl-phenyl)-4-oxo-1,4-dihydro-2H-3,1-benzoxazine-6-carboxylic acid (2-piperidin-1-yl-ethyl)-amide], for which the “in vitro MEK assay: % inhibition @ 1 μM” value was 44%.

On to `Cc1cc(I)ccc1N1COC(=O)c2cc(C(=O)Nc3nnc(S)s3)c(F)c(F)c21` [Example 27, 7,8-Difluoro-1-(4-iodo-2-methyl-phenyl)-4-oxo-1,4-dihydro-2H-3,1-benzoxazine-6-carboxylic acid (5-mercapto-1,3,4-thiadiazol-2-yl)-amide], for which the “in vitro MEK assay: % inhibition @ 1 μM” value was determined as 27%.

For `Cc1cc(I)ccc1N1COC(=O)c2cc(C(=O)NCCN3CCOCC3)c(F)c(F)c21` [Example 42, 7,8-Difluoro-1-(4-iodo-2-methyl-phenyl)-4-oxo-1,4-dihydro-2H-3,1-benzoxazine-6-carboxylic acid (2-morpholin-4yl-ethyl)-amide], the “in vitro MEK assay: % inhibition @ 1 μM” value is listed as 15%.

As to `Cc1cc(I)ccc1N1COC(=O)c2cc(C(=O)N3CCSCC3)c(F)c(F)c21` [Example 59, 7,8-Difluoro-1-(4-iodo-2-methyl-phenyl)-6-(thiomorpholine-4-carbonyl)-1,2-dihydro-3,1-benzoxzin-4-one], the “in vitro MEK assay: % inhibition @ 1 μM” value is 75%.

Take `Cc1cc(I)ccc1N1COC(=O)c2cc(C(=O)NCC3(O)CCCCC3)c(F)c(F)c21` [Example 13, 7,8-Difluoro-1-(4-iodo-2-methyl-phenyl)-4-oxo-1,4-dihydro-2H-3,1-benzoxazine-6-carboxylic acid (1-hydroxy-cyclohexylmethyl)-amide]: the “in vitro MEK assay: % inhibition @ 1 μM” value amounted to 23%.

On to `Cc1cc(I)ccc1N1COC(=O)c2cc(C(=O)Nc3ccccc3CCO)c(F)c(F)c21` [Example 30, 7,8-Difluoro-1-(4-iodo-2-methyl-phenyl)-4-oxo-1,4-dihydro-2H-3,1-benzoxazine-6-carboxylic acid [2-(2-hydroxy-ethyl)-phenyl]-amide], for which the “in vitro MEK assay: % inhibition @ 1 μM” value is reported as 55%.

For the molecule `Cc1cc(I)ccc1N1COC(=O)c2cc(C(=O)Nc3ccc(N(C)C)cc3)c(F)c(F)c21` [Example 53, 7,8-Difluoro-1-(4-iodo-2-methyl-phenyl)-4-oxo-1,4-dihydro-2H-3,1-benzoxazine-6-carboxylic acid (4-dimethylamino-phenyl)amide], the “in vitro MEK assay: % inhibition @ 1 μM” value is listed as 61%.

`CCSc1nnc(NC(=O)c2cc3c(c(F)c2F)N(c2ccc(I)cc2C)COC3=O)s1` [Example 25, 7,8-Difluoro-1-(4-iodo-2-methyl-phenyl)-4-oxo-1,4-dihydro-2H-3,1-benzoxazine-6-carboxylic acid (5-ethylsulfanyl-1,3,4-thiadiazol-2-yl)-amide]: the “in vitro MEK assay: % inhibition @ 1 μM” value is given as 5%.

As to `Cc1cc(I)ccc1N1COC(=O)c2cc(C(=O)NCCN3CCCC3)c(F)c(F)c21` [Example 11, 7,8-Difluoro-1-(4-iodo-2-methyl-phenyl)-4-oxo-1,4-dihydro-2H-3,1-benzoxazine-6-carboxylic acid (2-pyrrolidin-1-yl-ethyl)-amide], the “in vitro MEK assay: % inhibition @ 1 μM” value turned out to be 33%.

With `Cc1cc(I)ccc1Nc1c(C(=O)O)cc(C(=O)N2CCC(O)CC2)c(F)c1F` [Example 81, 3,4-Difluoro-5-[1-(4-hydroxy-piperidin-1-yl)-methanoyl]-2-(4-iodo-2-methyl-phenylamino)-benzoic acid], the IC50 stood at 1800 nM and the “in vitro MEK assay: % inhibition @ 1 μM” value is listed as 86%.

As to `Cc1cc(I)ccc1Nc1c(C(=O)O)cc(C(=O)Nc2ccc3c(c2)OCCO3)c(F)c1F` [Example 72, N-(2,3-Dihydro-benzo[1,4]dioxin-6-yl)4,5-difluoro-6-(4-iodo-2-methyl-phenylamino)-isophthalamic acid], the “in vitro MEK assay: % inhibition @ 1 μM” value was 65%.

On to `CCOC(=O)c1c[nH]nc1NC(=O)c1cc(C(=O)O)c(Nc2ccc(I)cc2C)c(F)c1F` [Example 73, 3-({1-[5-Carboxy-2,3-difluoro-4-(4-iodo-2-methyl-phenylamino)-phenyl]-methanoyl}-amino)-1H-pyrazole-4-carboxylic acid ethyl ester], for which the concentration for half-maximal inhibition (IC50) is 1100 nM and the “in vitro MEK assay: % inhibition @ 1 μM” value was determined as 86%.

Consider `Cc1cc(I)ccc1Nc1c(C(=O)O)cc(C(=O)NCc2cccnc2)c(F)c1F` [Example 71, 4,5-Difluoro-6-(4-iodo-2-methyl-phenylamino)-N-pyridin-3-ylmethyl-isophthalamic acid], for which the IC50 worked out at 1450 nM and the “in vitro MEK assay: % inhibition @ 1 μM” value came out at 86%.

For `Cc1cc(I)ccc1Nc1c(C(=O)O)cc(C(=O)NC(C)CO)c(F)c1F` (stereo not drawn) [Example 87, 4,5-Difluoro-N-(2-hydroxy-1-methyl-ethyl)-6-(4-iodo-2-methyl-phenylamino)-isophthalamic acid], the IC50 turned out to be 2200 nM and the “in vitro MEK assay: % inhibition @ 1 μM” value is given as 66%.

Turning to `CCCCN(CCS)C(=O)c1cc(C(=O)O)c(Nc2ccc(I)cc2C)c(F)c1F` [Example 68, N-Butyl-4,5-difluoro-6-(4-iodo-2-methyl-phenylamino)-N-(2-mercapto-ethyl)-isophthalamic acid], the “in vitro MEK assay: % inhibition @ 1 μM” value is recorded as 24%.
